Measured values taken from patent US20260034065A1, “EXTENDED RELEASE PHARMACEUTICAL FORMULATION” (Douglas Pharmaceuticals Ltd., priority 2020, published 2026).

Key:
[1] = injected by any route of administration, e.g. Loo 2016; cited from earlier work
[2] = subcutaneous dosing, unpublished data
[3] = Study ZPS-603 Cohort 4: mood ratings (HAMA, FQ, MADRS) in patients with TRD/TRA; format: in vivo, human; settings: study 603 cohort 4 participants (FIG. 7)
Description: The objective of Cohort 4 was to evaluate efficacy, safety, PK and PD of an extended release ketamine oral formulation in patients with treatment-resistant depression and/or treatment-resistant anxiety (TRD/TRA). […] The design was an open label multiple ascending dose study. The initial dose was 60 mg, and could be escalated by an additional 60 mg 12 hourly, based on assessment of mood symptoms, to a maximum dose of 240 mg, with a total of 7 doses given 12 hourly between 0 and 72 hours. Endpoints included safety, tolerability, ketamine and norketamine PK, and PD (mood ratings including the Fear Questionnaire (FQ; Marks 1979), HAMA and MADRS, and dissociative symptom rating scale scores).
Anxiety Rating Scales: HAMA and FQ: Individual and group mean HAMA and FQ scores by timepoint are shown in FIG. 6 (6A: HAMA; 6B: FQ) There was a consistent trend for both scores to decrease over time, most noticeably in patients with higher baseline scores. […] All seven participants were assessed to be treatment responders (>50% reduction) based on changes in
There was a consistent trend for scores to decrease over time, most noticeably in patients with higher baseline scores. All seven participants were assessed to be treatment responders (>50% reduction) based on change in MADRS scores. […]

## CNC1(c2ccccc2Cl)CCCCC1=O (stereo not drawn) [Ketamine solution, 2-(2-chlorophenyl)-2-(methylamino) cyclohexan-1-one]
[1]
  duration of marked dissociative symptoms after dosing: up to 60 minutes
[2]
  Mean Tmax-ketamine: 38.4 min
[3]
  onset of improvement of anxiety symptoms: 1 to 2 h
